ChEMBL document CHEMBL1152923, “ent-Kaurane diterpenoids from Isodon pharicus” (J Nat Prod, 2009)

How the values were obtained:
Assay type in all cases: functional, cell-based
PC-3 = assay: Cytotoxicity against human PC3 cells after 48 hrs by SRB method; settings: PC-3, 48 h
MCF7 = assay: Cytotoxicity against human MCF7 cells after 48 hrs by SRB method; settings: MCF7, 48 h
NB-4 = assay: Cytotoxicity against human NB4 cells after 48 hrs by SRB method; settings: NB-4, 48 h
A549 = assay: Cytotoxicity against human A549 cells after 48 hrs by SRB method; settings: A549, 48 h
SH-SY5Y = assay: Cytotoxicity against human SH-SY5Y cells after 48 hrs by SRB method

| Structure (SMILES) | IC50 (PC-3) | IC50 (MCF7) | IC50 (NB-4) | IC50 (A549) | IC50 (SH-SY5Y) |
| --- | --- | --- | --- | --- | --- |
| C=C1C(=O)[C@]23[C@H](O)[C@H]1C(=O)C[C@H]2[C@]1(C)CC[C@H](OC(C)=O)C(C)(C)[C@H]1C[C@H]3OC(C)=O | > 10 µM | > 10 µM | > 10 µM | > 10 µM | > 10 µM |
| C=C1C(=O)[C@@]23[C@H](O)C[C@@H]4C(C)(C)[C@H](O)CC[C@@]4(C)[C@@H]2C[C@H](OC(C)=O)[C@@H]1[C@H]3O | > 10 µM | > 10 µM | 8.32 µM | > 10 µM | 8.12 µM |
| C=C1[C@H]2[C@@H](OC(C)=O)[C@@]3(CC[C@@H]4C(C)(C)[C@@H](O)CC[C@@]4(C)[C@@H]3C[C@@H]2O)[C@@H]1O | > 10 µM | > 10 µM | > 10 µM | > 10 µM | > 10 µM |
| COC[C@@H]1C(=O)[C@@]23[C@H](O)C[C@@H]4C(C)(C)[C@@H](OC(C)=O)CC[C@@]4(C)[C@@H]2CC(=O)[C@@H]1[C@H]3O | 7.42 µM | > 10 µM | 8.74 µM | > 10 µM | > 10 µM |
| C=C1C(=O)[C@@]23[C@H](O)C[C@@H]4C(C)(C)[C@@H](OC(C)=O)C[C@H](O)[C@@]4(C)[C@@H]2C[C@H](O)[C@@H]1[C@H]3O | > 10 µM | > 10 µM | > 10 µM | > 10 µM | > 10 µM |
| C=C1C(=O)[C@@]23[C@@H]4OC(C)(C)O[C@@H]2C[C@@H]2C(C)(C)[C@H](O)CC[C@@]2(C)[C@@H]3C[C@H](O)[C@@H]14 | > 10 µM | > 10 µM | 3.56 µM | 6.02 µM | > 10 µM |
| C=C1C(=O)[C@@]23[C@H](O)C[C@@H]4C(C)(C)[C@@H](O)CC[C@@]4(C)[C@@H]2C[C@H](O)[C@@H]1[C@H]3O [3-EPIPSEURATA B] | > 10 µM | > 10 µM | > 10 µM | > 10 µM | > 10 µM |
| C=C1[C@@H]2C(=O)C[C@H]3[C@@]4(C)[C@H](C[C@@H](O)[C@@]3([C@@H]1O)[C@@H]2O)C(C)(C)[C@@H](OC(C)=O)C[C@@H]4O [DIHYDROPSEURATA F] | > 10 µM | > 10 µM | > 10 µM | > 10 µM | > 10 µM |
| C=C1C(=O)[C@@]23[C@H](O)C[C@@H]4C(C)(C)C(=O)CC[C@@]4(C)[C@@H]2CC[C@@H]1[C@H]3O [GLAUCOCALYXIN A] | > 10 µM | 8.73 µM | 2.9 µM | 5.39 µM | > 10 µM |
| C=C1C(=O)[C@@]23[C@H](O)C[C@@H]4C(C)(C)C(=O)CC[C@@]4(C)[C@@H]2CC[C@@H]1[C@H]3OC(C)=O [GLAUCOCALYXIN B] | > 10 µM | > 10 µM | 7.86 µM | 6.22 µM | > 10 µM |
| C=C1C(=O)[C@@]23[C@H](O)C[C@@H]4C(C)(C)[C@@H](OC(C)=O)C[C@H](O)[C@@]4(C)[C@@H]2CC[C@@H]1[C@H]3O [ISODOMEDIN] | > 10 µM | > 10 µM | 7.29 µM | > 10 µM | > 10 µM |
| C=C1C(=O)[C@@]23[C@H](O)C[C@@H]4C(C)(C)[C@@H](OC(C)=O)CC[C@@]4(C)[C@@H]2CC[C@@H]1[C@H]3O [LEUKAMENIN E] | > 10 µM | > 10 µM | 4 µM | > 10 µM | > 10 µM |
| C=C1C(=O)[C@@]23[C@H](O)C[C@@H]4C(C)(C)[C@@H](O)C[C@H](O)[C@@]4(C)[C@@H]2CC[C@@H]1[C@H]3O [MINHERYIN G] | > 10 µM | > 10 µM | > 10 µM | > 10 µM | > 10 µM |
| C=C1C(=O)[C@@]23C(CC[C@@H]1[C@H]2O)[C@]1(C)CC[C@@H](O)C(C)(C)[C@H]1C[C@H]3O (stereo not given in full) [PSEURATA A] | > 10 µM | 9.05 µM | 7.69 µM | 2.92 µM | > 10 µM |
| C=C1C(=O)[C@@]23[C@H](O)C[C@@H]4C(C)(C)[C@H](O)CC[C@@]4(C)[C@@H]2C[C@H](O)[C@@H]1[C@H]3O [PSEURATA B] | > 10 µM | > 10 µM | > 10 µM | > 10 µM | > 10 µM |
| C=C1C(=O)[C@@]23[C@H](O)C[C@@H]4C(C)(C)[C@@H](OC(C)=O)CC[C@@]4(C)[C@@H]2CC(=O)[C@@H]1[C@H]3O [PSEURATA C] | > 10 µM | > 10 µM | 2.08 µM | 7.62 µM | > 10 µM |
| C=C1C(=O)[C@@]23[C@H](O)C[C@@H]4C(C)(C)[C@@H](OC(C)=O)C[C@H](O)[C@@]4(C)[C@@H]2CC(=O)[C@@H]1[C@H]3O [PSEURATA F] | > 10 µM | > 10 µM | > 10 µM | > 10 µM | > 10 µM |
| C=C1C(=O)[C@@]23C(CC[C@@H]1[C@H]2O)[C@]1(C)CC[C@H](O)C(C)(C)[C@H]1C[C@H]3O (stereo not given in full) [WANGZAOZIN A] | > 10 µM | 5.8 µM | 9.02 µM | 9.29 µM | > 10 µM |
